This is an account of results in PMC6447865, “Novel Group of Imidazole Derivatives as Atypical Selective Cyclooxygenase-2 Inhibitors: Design, Synthesis and Biological Evaluation” (Iranian Journal of Pharmaceutical Research : IJPR, 2018).

One data set concerns the target T1, COX-1 enzyme (Ovis aries, UniProt P05979).
T1 construct: purchased Cayman 701050
T1 sequence (P05979 25-600): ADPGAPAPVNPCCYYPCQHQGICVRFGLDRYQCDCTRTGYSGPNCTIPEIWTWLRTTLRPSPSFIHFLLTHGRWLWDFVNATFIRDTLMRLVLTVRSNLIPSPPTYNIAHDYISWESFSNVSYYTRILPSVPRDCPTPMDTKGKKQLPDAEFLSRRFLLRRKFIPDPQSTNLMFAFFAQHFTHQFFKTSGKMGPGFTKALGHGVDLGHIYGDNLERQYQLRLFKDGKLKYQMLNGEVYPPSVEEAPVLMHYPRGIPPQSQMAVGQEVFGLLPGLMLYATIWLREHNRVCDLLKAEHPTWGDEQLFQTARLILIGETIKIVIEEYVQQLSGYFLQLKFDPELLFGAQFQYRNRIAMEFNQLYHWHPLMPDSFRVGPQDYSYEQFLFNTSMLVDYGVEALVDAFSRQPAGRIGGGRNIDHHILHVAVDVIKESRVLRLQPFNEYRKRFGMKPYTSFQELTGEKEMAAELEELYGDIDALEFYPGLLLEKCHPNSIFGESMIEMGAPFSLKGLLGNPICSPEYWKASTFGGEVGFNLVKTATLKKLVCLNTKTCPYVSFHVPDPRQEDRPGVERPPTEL
Briefly: biochemical. To be noted: mean of two values; enzyme incubated with inhibitor 2 min, pH 8.0, 25 °C; arachidonic acid substrate; absorbance 590 nm. As to the method:
(§1) All test samples were dissolved in DMSO and absorbance was read at 590 nm. The IC50 amounts of the novel compounds were analyzed using nonlinear regression with Dos-response inhibition parameter by the activity base software package (Program Prism, Graph Pad, SanDiego, CA).

A further data set addresses T2, COX-2 enzyme (Homo sapiens, UniProt P35354).
T2 construct: purchased Cayman 701050
T2 sequence (P35354 18-604): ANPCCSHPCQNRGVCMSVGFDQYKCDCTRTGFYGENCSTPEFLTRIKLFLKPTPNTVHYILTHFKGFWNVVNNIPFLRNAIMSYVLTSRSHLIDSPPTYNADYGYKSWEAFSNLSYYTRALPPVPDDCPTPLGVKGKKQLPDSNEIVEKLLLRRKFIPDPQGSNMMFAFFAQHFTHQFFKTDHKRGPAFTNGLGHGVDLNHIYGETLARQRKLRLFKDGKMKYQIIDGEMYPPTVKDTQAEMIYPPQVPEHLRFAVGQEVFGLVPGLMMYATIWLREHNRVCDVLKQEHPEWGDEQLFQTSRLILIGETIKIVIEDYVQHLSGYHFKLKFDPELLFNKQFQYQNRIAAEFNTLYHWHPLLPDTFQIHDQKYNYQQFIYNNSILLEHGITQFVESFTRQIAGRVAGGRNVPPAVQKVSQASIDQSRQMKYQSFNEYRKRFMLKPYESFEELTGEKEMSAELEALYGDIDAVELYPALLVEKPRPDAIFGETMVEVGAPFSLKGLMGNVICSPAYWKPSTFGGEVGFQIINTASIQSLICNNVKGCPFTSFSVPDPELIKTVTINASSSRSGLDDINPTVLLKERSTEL
Briefly: biochemical. The conditions noted are these: for IC50: mean of two values, enzyme incubated with inhibitor 2 min, pH 8.0, 25 °C, arachidonic acid substrate, absorbance 590 nm; for COX-2 S.I. (in-vitro COX-2 selectivity index, COX-1/COX-2): ratio IC50 COX-1 / IC50 COX-2. As to the method:
as §1

Regarding `CS(=O)(=O)c1ncc(CNc2ccccc2)n1Cc1ccccc1` [Compound 5a, N-((1-benzyl-2-(methylsulfonyl)-1H-imidazol-5-yl)methyl)benzamine], the melting point (as a rule, the temperature of the solid-liquid transition) was in the range of 114 to 115 °C. Besides, the half-maximal inhibitory concentration (IC50) (usually the concentration needed to halve the response being measured) against COX-1 enzyme was found to be 87 µM. Also, on COX-2 enzyme, the IC50 is 3.2 µM and the “COX-2 S.I. (in-vitro COX-2 selectivity index, COX-1/COX-2)” value amounted to 27.

Consider `CS(=O)(=O)c1ncc(CNc2ccc(Cl)cc2)n1Cc1ccccc1` [Compound 5e, N-((1-benzyl-2-(methylsulfonyl)-1H-imidazol-5-yl)methyl)-4-chlorobenzamine], for which the melting point stood at 142 °C. For the same molecule, at COX-1 enzyme, half-maximal inhibition (IC50) was put at 138 µM. Besides, on COX-2 enzyme, the midpoint of inhibition, the IC50, lay at 3.6 µM and the “COX-2 S.I. (in-vitro COX-2 selectivity index, COX-1/COX-2)” value was determined as 38.

`CS(=O)(=O)c1ncc(CNc2ccc(Br)cc2)n1Cc1ccccc1` [Compound 5c, N-((1-benzyl-2-(methylsulfonyl)-1H-imidazol-5-yl)methyl)-4-bromobenzamine]: the melting point is 155 °C. Besides, the IC50 on COX-1 enzyme was 78 µM. At COX-2 enzyme, half-maximal inhibition (IC50) required 2.8 µM and the “COX-2 S.I. (in-vitro COX-2 selectivity index, COX-1/COX-2)” value is 28.

In turn, `CS(=O)(=O)c1ncc(CNc2ccc([N+](=O)[O-])cc2)n1Cc1ccccc1` [Compound 5d, N-((1-benzyl-2-(methylsulfonyl)-1H-imidazol-5-yl)methyl)-4-nitrobenzamine] came in with a melting point of 177 °C. For the same molecule, half-maximal inhibition against COX-1 enzyme (IC50) required 78 µM. Besides, at COX-2 enzyme, the IC50 was 3 µM and the “COX-2 S.I. (in-vitro COX-2 selectivity index, COX-1/COX-2)” value is reported as 26.

The molecule `COc1ccc(NCc2cnc(S(C)(=O)=O)n2Cc2ccccc2)cc1` [Compound 5b, N-((1-benzyl-2-(methylsulfonyl)-1H-imidazol-5-yl)methyl)-4-methoxybenzamine] came in with a melting point of 152 °C. On COX-1 enzyme, the IC50 amounted to 82 µM. At COX-2 enzyme, the half-inhibitory concentration (IC50) came to 0.71 µM and the “COX-2 S.I. (in-vitro COX-2 selectivity index, COX-1/COX-2)” value worked out at 115.
